Biological target: [Pyruvate dehydrogenase (acetyl-transferring)] kinase isozyme 1, mitochondrial (Homo sapiens, UniProt Q15118)
Assay: Binding affinity to pyruvate dehydrogenase kinase 1 (unknown origin) incubated for 90 mins by VER-00160364 probe based fluorescence polarization assay

Chain of [Pyruvate dehydrogenase (acetyl-transferring)] kinase isozyme 1, mitochondrial (Q15118 whole entry): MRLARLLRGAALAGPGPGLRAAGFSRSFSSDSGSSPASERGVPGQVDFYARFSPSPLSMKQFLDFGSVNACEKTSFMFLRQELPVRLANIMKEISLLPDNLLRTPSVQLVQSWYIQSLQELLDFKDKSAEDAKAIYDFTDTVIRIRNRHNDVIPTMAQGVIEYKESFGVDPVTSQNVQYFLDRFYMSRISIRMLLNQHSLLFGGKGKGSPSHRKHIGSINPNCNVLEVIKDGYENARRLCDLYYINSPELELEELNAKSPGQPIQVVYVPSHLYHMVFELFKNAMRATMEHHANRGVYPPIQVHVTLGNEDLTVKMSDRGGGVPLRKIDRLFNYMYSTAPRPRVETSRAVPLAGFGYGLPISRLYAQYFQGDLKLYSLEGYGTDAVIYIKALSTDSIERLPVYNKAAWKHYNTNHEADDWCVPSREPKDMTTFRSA

IC50 | Structure (SMILES)
1 µM | Cc1cnc(Cl)nc1-c1ccc(N(C(=O)c2ccc(O)cc2O)C(C)c2ccccc2)cc1 (stereo unspecified)
0.1 µM | Cc1cnc(C#N)nc1-c1ccc(N(Cc2ccccc2)C(=O)c2ccc(O)cc2O)cc1
10 µM | O=C(c1ccc(O)cc1O)N(Cc1ccccc1)c1ccc(-c2nc(Cl)nc3ccsc23)cc1
0.1 µM | Cc1cnc(Cl)nc1-c1ccc(N(Cc2ccccc2)C(=O)c2ccc(O)cc2O)cc1F
0.01 µM | Cc1nccn1-c1ccc(-c2ccc(N(Cc3ccccc3)C(=O)c3ccc(O)cc3O)cc2)nn1
0.01 µM | CN(Cc1cccc2cnccc12)C(=O)c1ccc(N(Cc2ccsc2)C(=O)c2ccc(O)cc2O)cc1
0.1 µM | CN(C)C(=O)c1ccc(N(Cc2ccn(C)n2)C(=O)c2ccc(O)cc2O)cc1
0.01 µM | CN(C)C(=O)c1ccc(N(Cc2ccsc2)C(=O)c2ccc(O)cc2O)cc1
0.1 µM | O=C(NCc1ccc(Cl)cc1)c1ccc(N(Cc2cccnc2)C(=O)c2ccc(O)cc2O)cc1
1 µM | Cc1nccnc1-c1ccc(N(Cc2ccccc2)C(=O)c2ccc(O)cc2O)cc1F
1 µM | O=C(c1ccc(O)cc1O)N(Cc1cccnc1)c1ccc(-c2cnc3ccccc3n2)cc1
0.1 µM | CN(Cc1ccnc2ccccc12)C(=O)c1ccc(N(Cc2ccsc2)C(=O)c2ccc(O)cc2O)cc1
1 µM | Cc1c(Cl)nc(Cl)nc1-c1ccc(N(Cc2ccccc2)C(=O)c2ccc(O)cc2O)cc1
1 µM | O=C(c1ccc(O)cc1O)N(Cc1cccnc1)c1ccc(-c2nc3ccccc3o2)cc1
1 µM | CN(C)C(=O)c1ccc(N(Cc2ccncc2)C(=O)c2cc(Cl)c(O)cc2O)cc1
1 µM | Cc1cc(N(Cc2ccccc2)C(=O)c2ccc(O)cc2O)ccc1-c1nc(Cl)ncc1C
0.1 µM | CN(Cc1ccnc2ccccc12)C(=O)c1ccc(N(Cc2cccnc2)C(=O)c2ccc(O)cc2O)cc1
0.1 µM | NC(=O)c1nc(-c2ccc(N(Cc3cccnc3)C(=O)c3ccc(O)cc3O)cc2)c2ccccc2n1
0.1 µM | COc1ccc2nc(-c3ccc(N(Cc4ccccc4)C(=O)c4ccc(O)cc4O)cc3)c(C)cc2c1
0.1 µM | CN(C)C(=O)c1ccc(N(Cc2ccc(C(F)(F)F)cc2)C(=O)c2cc(Cl)c(O)cc2O)cc1
1 µM | COc1ccccc1-c1ccc(N(Cc2cccnc2)C(=O)c2ccc(O)cc2O)cc1
1 µM | N#Cc1cncnc1-c1ccc(N(Cc2ccccc2)C(=O)c2ccc(O)cc2O)cc1
1 µM | CC(c1ccccc1)N(C(=O)c1ccc(O)cc1O)c1ccc(C(=O)N(C)C)cc1 (stereo unspecified)
1 µM | CSc1nc(-c2ccc(N(Cc3ccccc3)C(=O)c3ccc(O)cc3O)cc2)c2cc[nH]c2n1
1 µM | Cc1cnc(-c2ccccc2)nc1-c1ccc(N(Cc2ccccc2)C(=O)c2ccc(O)cc2O)cc1
1 µM | CCCc1cncnc1-c1ccc(N(Cc2ccccc2)C(=O)c2ccc(O)cc2O)cc1
0.01 µM | O=C(c1ccc(O)cc1O)N(Cc1ccccc1)c1ccc(-c2nc(Cl)c3c(n2)CCSC3)cc1
1 µM | Cc1nc(-c2ccc(N(Cc3ccsc3)C(=O)c3ccc(O)cc3O)cc2)c2ccccc2n1
0.1 µM | CN(C)C(=O)c1ccc(N(CC2CCCC2)C(=O)c2ccc(O)cc2O)cc1
0.01 µM | CN(C)C(=O)c1ccc(N(Cc2ccccc2)C(=O)c2cc(Cl)c(O)cc2O)cc1

Second part, the compound before the results:

Structure (SMILES) | IC50
Cc1cc(S(=O)(=O)NCc2cccnc2)cnc1-c1ccc(N(Cc2ccsc2)C(=O)c2ccc(O)cc2O)cc1 | 0.01 µM
O=C(c1ccc(O)cc1O)N(Cc1ccccc1)c1ccc(-c2nc3ccccc3nc2C(F)(F)F)cc1 | 1 µM
O=C(c1ccc(O)cc1O)N(Cc1cccnc1)c1ccc(-c2ccc(N3CCCC3)nn2)cc1 | 0.1 µM
O=C(c1ccc(O)cc1O)N(Cc1cccnc1)c1ccc(-c2ccc(Cl)nc2)cc1 | 1 µM
COc1cc2cc(Cl)ccc2nc1-c1ccc(N(Cc2ccsc2)C(=O)c2ccc(O)cc2O)cc1 | 0.1 µM
O=C(c1ccc(O)cc1O)N(Cc1cccnc1)c1ccc(-c2ccnc3ccsc23)cc1 | 0.1 µM
Cc1cncnc1-c1ccc(N(Cc2cccnc2)C(=O)c2ccc(O)cc2O)cc1 | 0.1 µM
Cc1ccc(S(N)(=O)=O)nc1-c1ccc(N(Cc2ccsc2)C(=O)c2ccc(O)cc2O)cc1 | 0.1 µM
Nc1nccc(-c2ccc(N(Cc3ccsc3)C(=O)c3ccc(O)cc3O)cc2)n1 | 1 µM
CNS(=O)(=O)c1cnc(-c2ccc(N(Cc3cccnc3)C(=O)c3ccc(O)cc3O)cc2)c(C)c1 | 0.01 µM
N#Cc1cc(Cl)nc(-c2ccc(N(Cc3cccnc3)C(=O)c3ccc(O)cc3O)cc2)c1 | 0.1 µM
Cc1cc(S(=O)(=O)NCCCC(N)=O)cnc1-c1ccc(N(Cc2ccccc2)C(=O)c2ccc(O)cc2O)cc1 | 0.01 µM
COc1cc(-c2ccc(N(Cc3cccnc3)C(=O)c3ccc(O)cc3O)cc2)ncn1 | 1 µM
COc1ccc(CN(C)C(=O)c2ccc(N(Cc3cccnc3)C(=O)c3cc(Cl)c(O)cc3O)cc2)cc1 | 0.01 µM
COc1ccc(CN(C)C(=O)c2ccc(N(Cc3ccsc3)C(=O)c3cc(Cl)c(O)cc3O)cc2)cc1 | 0.1 µM
Cc1ncc(C)c(-c2ccc(N(Cc3ccccc3)C(=O)c3cc(Cl)c(O)cc3O)cc2)n1 | 0.1 µM
Cc1ncc(C)c(-c2ccc(N(Cc3ccsc3)C(=O)c3ccc(O)cc3O)cc2)n1 | 0.01 µM
O=C(c1ccc(O)cc1O)N(Cc1ccccc1)c1ccc(-c2nc(-c3ccccc3)nc3ccccc23)cc1 | 0.1 µM

Structure (SMILES) | IC50
Cc1cc2cc(F)ccc2nc1-c1ccc(N(Cc2cccnc2)C(=O)c2ccc(O)cc2O)cc1 | 0.1 µM
Cc1cc(S(=O)(=O)N2CCC(F)(F)CC2)cnc1-c1ccc(N(Cc2ccsc2)C(=O)c2ccc(O)cc2O)cc1 | 1 µM
O=C(c1ccc(O)cc1O)N(Cc1cccnc1)c1ccc(-c2nc(C(F)(F)F)ccc2C(F)(F)F)cc1 | 0.01 µM
Cc1cc(S(=O)(=O)N2CCN(C)CC2)cnc1-c1ccc(N(Cc2ccsc2)C(=O)c2ccc(O)cc2O)cc1 | 0.01 µM
CCOC(=O)c1nc(C)nc(-c2ccc(N(Cc3cccnc3)C(=O)c3ccc(O)cc3O)cc2)c1C | 0.1 µM
Cc1nc(C(F)(F)F)nc(-c2ccc(N(Cc3cccnc3)C(=O)c3ccc(O)cc3O)cc2)c1C | 0.01 µM
Cc1cc2ccc(F)cc2nc1-c1ccc(N(Cc2ccccc2)C(=O)c2ccc(O)cc2O)cc1F | 0.1 µM
Cc1cc(S(=O)(=O)N2CCC(F)(F)CC2)cnc1-c1ccc(N(Cc2ccccc2)C(=O)c2ccc(O)cc2O)cc1 | 1 µM
COc1cnc(-c2ccc(N(Cc3cccnc3)C(=O)c3ccc(O)cc3O)cc2)cc1OC | 0.1 µM
Cc1cc(C(=O)N(Cc2ccsc2)c2ccc(C(=O)N(C)Cc3ccc4nccnc4c3)cc2)c(O)cc1O | 0.01 µM
COc1cnc(Cl)nc1-c1ccc(N(Cc2ccsc2)C(=O)c2ccc(O)cc2O)cc1 | 0.1 µM
Cc1cc2ccccc2nc1-c1ccc(N(Cc2ccc(Cl)cc2)C(=O)c2ccc(O)cc2O)cc1 | 1 µM
Cc1cc2ccccc2nc1-c1ccc(N(Cc2cccc(F)c2)C(=O)c2ccc(O)cc2O)cc1 | 0.01 µM
O=C(c1ccc(O)cc1O)N(Cc1cccnc1)c1ccc(-c2nncc3ccccc23)cc1 | 0.1 µM
O=C(c1ccc(O)cc1O)N(Cc1cccnc1)c1ccc(-c2nc(-c3ccccc3)nc3ccccc23)cc1 | 1 µM
O=C(c1ccc(O)cc1O)N(Cc1cccnc1)c1ccc(-c2nc3cc(Cl)ccc3o2)cc1 | 1 µM
CC(=O)N1CCN(S(=O)(=O)c2cnc(-c3ccc(N(Cc4ccsc4)C(=O)c4ccc(O)cc4O)cc3)c(C)c2)CC1 | 0.01 µM
CCNc1cc(-c2ccc(N(Cc3ccsc3)C(=O)c3ccc(O)cc3O)cc2)ncn1 | 10 µM
